Assay results published in patent US7314970B2, “Method for plant breeding” (priority 1997, dated 2008).

Key:
most plant species = most plant species (Franz, 1985), but not all; cited from earlier work
[1] = system: DK580 and DK626 BC4 hybrids of FI117, GA21, GG25 and GJ11; assay: Effect of glyphosate application on growth and fertility of DK580 and DK626 hybrids (field test); assay type: in vivo, maize
Text: BC4 hybrids of DK580 and DK626 were produced containing one of the FI117, GA21, GG25 or GJ11 transformation events as described in example 14. Comparisons of the effect of glyphosate application on growth (mean extended leaf height) and male fertility was compared at both the V4 and V8 developmental stage. The developmental scale that was used to rate the corn plants is well known in the art, and is described in Special Report No. 48, Iowa State University of Science and Technology, Cooperative Extension Service, Ames, Iowa. Each of the hybrids was studied at both the V4 and V8 stage using 0× glyphosate (i.e. water only), 1× glyphosate, or 4× glyphosate (the 1× level corresponds to 16 ounces/acre of ROUNDUP ULTRA™).
Tests were designed as four row, 3 rep., split-split-plot with main plots as hybrids, subplots as transformant sources (i.e. GA21, GG25, FI117, and GJ11) and subplots as timing/rate combinations […]. Statistical methods for design and analysis of data derived from experimental field plots are described in Gomez and Gomez, (1984). Tests were conducted in Dekalb, Ill., and Thomasboro, Ill. during 1996. All rows were planted at double normal planting density, i.e., 60 seeds per row, because hybrids segregated 1:1 for the glyphosate resistance trait. Sprayed plants were thinned to 30 plants per row no sooner than 7 days after application of Roundup at a time when Roundup susceptible plants could be identified. Unsprayed plots were thinned to 30 plants per row at the same time. At 5-10 days after herbicide application, the following data was collected in each row: number of dead plants, number of damaged plants, and number of normal plants. After thinning, the mean extended leaf height was measured on 10 resistant plants per plot. During the remainder of the growing season the following agronomic data was collected: early stand count, seedling vigor, final stand count, plant height, ear height, intactness, stay green, number of barren plants, number of male-sterile plants, number of dropped ears, number of root lodged plants, number of stalks lodged plants, shelled grain weight, per cent grain moisture at harvest, and test weight.

[2] = system: DK580 and DK626 hybrids of FI117, GA21, GG25 and GJ11; assay: Yield effect of glyphosate application on DK580 and DK626 hybrids (field test); assay type: in vivo, maize
Method: Tests were designed as four row, 3 rep., split-split-plot with main plots as hybrids, subplots as transformant sources (i.e. GA21, GG25, FI117, and GJ11) and subplots as timing/rate combinations […]. Statistical methods for design and analysis of data derived from experimental field plots are described in Gomez and Gomez, (1984). Tests were conducted in Dekalb, Ill., and Thomasboro, Ill. during 1996. All rows were planted at double normal planting density, i.e., 60 seeds per row, because hybrids segregated 1:1 for the glyphosate resistance trait. Sprayed plants were thinned to 30 plants per row no sooner than 7 days after application of Roundup at a time when Roundup susceptible plants could be identified. Unsprayed plots were thinned to 30 plants per row at the same time. […] After thinning, the mean extended leaf height was measured on 10 resistant plants per plot. […]
Four DK580 and four DK626 hybrids, each containing a different mutant EPSPS transgene from one of the GA21, FI117, GJ11 or GG25 transformation events, were field tested for possible effects on yield with glyphosate application as described in Example 12, with treatments as shown in FIG. 13. […] Data were analyzed using the SAS PROC MIXED and PROC SUM procedures. […]

Structure (SMILES)	phytotoxicity relative to glyphosate (most plant species)	male fertility ([1]; all 4 GA21 treatments)	resistance to glyphosate (mean extended leaf height) ([1]; all 4 transformation events, 1× and 4× application levels (1× = 16 ounces/acre ROUNDUP ULTRA))	male fertility ([1]; application at V4 stage, all plants)	male fertility ([1]; application at V8 stage, only GJ11 and GJ25 treatments)	effect on yield ([2]; DK580 hybrids, glyphosate applied at V4 stage)	effect on yield ([2]; DK626 hybrids with GA21 or FI117, V8 stage, 4× rate)
NCP(=O)(O)O [AMPA, aminomethylphosphonate]	much less phytotoxic than glyphosate	–	–	–	–	–	–
O=C(O)CNCP(=O)(O)O [glyphosate, N-phosphonomethyl-glycine]	–	male-fertile plants	significant resistance	male-fertile	male sterile plants	significant decreases in yield are not observed for 3 of the 4 DK580 hybrids	no significant loss in yield
